Results from US20030040015A1, “Methods and reagents for identifying compounds and mutations that modulate dopamine beta-hydroxylase activity” (priority 2001, published 2003).

Key:
NE deficient patients [1] = test: Physiological and pharmacological autonomic function tests in NE deficient patients; format: in vivo, human; conditions: for block of heart rate increase during strain phase (phase II) of the Valsalva maneuver: human, in vivo
Description: We collected DNA samples from two patients with NE deficiency, and sequenced all exons and exon/intron junctions of their DBH, Phox2a, and Phox2b genes. Resulting novel variants were then examined in the first degree relatives of the NE deficient patients, healthy European-American controls, and in patients with autonomic disorders other than NE deficiency. […] These patients have been previously reported (Robertson D, et al. N Engl J Med; 314:1494, 1986; Biaggioni I, et al. Neurology, 40:370, 1990). The patients were evaluated on the Vanderbilt General Clinical Research Center while in balance on a 150 mEq sodium and 80 mEq potassium diet one week after discontinuation of medications. Both direct and indirect hemodynamic monitoring was carried out and a variety of physiological and pharmacological tests were employed. Catecholamines and their metabolites were analyzed by radioenzymatic and liquid chromatographic methods as described previously (Robertson D, et al. N Engl J Med, 314:1494, 1986; O'Connor D T, et al. Clin Sci, 86:149, 1994).

NE deficient patients [2] = conditions: Biaggioni et al. Lancet 1987; cited from earlier work
DBH-/- mouse embryos = conditions: DBH-/- embryos that usually die in utero; Thomas et al.; cited from earlier work
CHF patients = conditions: recent clinical studies; cited from earlier work

COC(=O)[C@@H]1[C@H]2C[C@H]3c4[nH]c5ccccc5c4CCN3C[C@@H]2CC[C@@H]1O [yohimbine]
effect on blood pressure (NE deficient patients [1]; 10 mg po): no effect
effect on plasma catecholamines (NE deficient patients [1]; 10 mg po): no effect

N[C@H](C(=O)O)[C@H](O)c1ccc(O)c(O)c1 [DOPS, dihydroxyphenylserine]
treatment of autonomic and biochemical deficits of NE deficient patients (NE deficient patients [2]): successfully treated
rescue of homozygous mouse embryos (DBH-/- mouse embryos): rescued homozygous mouse embryos

CN1[C@@H]2CC[C@H]1C[C@@H](OC(=O)C(CO)c1ccccc1)C2 (some centres unmarked) [atropine]
block of heart rate increase during strain phase (phase II) of the Valsalva maneuver (NE deficient patients [1]): blocked

CC(C)NCC(O)COc1cccc2ccccc12 (centres unmarked) [propranolol]
block of heart rate increase during strain phase (phase II) of the Valsalva maneuver (NE deficient patients [1]): not

CC(C)NCC(O)c1ccc(O)c(O)c1 (centres unmarked) [isoproterenol]
hypersensitivity to the tachycardic effect of the β-adrenoreceptor agonist (NE deficient patients [1]; two NE deficient patients): three-fold hypersensitivity

NCCc1ccc(O)cc1 [tyramine]
response to indirectly acting sympathomimetic amine (NE deficient patients [1]; 8 mg IV): absent response

CNC[C@H](O)c1cccc(O)c1 [phenylephrine]
hypersensitivity to intravenous α1-adrenoreceptor agonist (NE deficient patients [1]; intravenous, two NE deficient patients): four-fold hypersensitivity

Clc1cccc(Cl)c1N=C1NCCN1 [clonidine]
effect on arterial pressure (NE deficient patients [1]; 0.3 mg po, decrease expected): increase in arterial pressure

COc1ccccc1OCCNCC(O)COc1cccc2[nH]c3ccccc3c12 (centres unmarked) [carvedilol]
mortality and risk of death and hospitalization (CHF patients): reduced mortality and the risk of death and hospitalization
